From PubChem BioAssay (NCI)
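All cell lines were grown in 96-well plates and treated with compound for 48 hours. TGI is the concentration that stops growth completely.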

How the values were obtained:
Test in all cases: NCI tumour cell line growth inhibition, 48 h
[1] = tested on: TK-10 renal
[2] = tested on: RXF 393 renal
[3] = tested on: A498 renal
[4] = tested on: NCI-H23 lung
[5] = tested on: SK-OV-3 ovarian
[6] = tested on: CCRF-CEM leukemia
[7] = tested on: 786-0 renal
[8] = tested on: HCT-116 colon
[9] = tested on: SF-295 CNS
[10] = tested on: UO-31 renal
[11] = tested on: NCI-H522 lung
[12] = tested on: COLO 205 colon
[13] = tested on: NCI-H460 lung
[14] = tested on: LOX IMVI melanoma
[15] = tested on: SF-268 CNS
[16] = tested on: ACHN renal
[17] = tested on: MDA-N
[18] = tested on: NCI/ADR-RES ovarian
[19] = tested on: DU-145 prostate
[20] = tested on: HS 578T breast

Row | SMILES | TGI [1] | TGI [2] | TGI [3] | TGI [4] | TGI [5] | TGI [6] | TGI [7] | TGI [8] | TGI [9] | TGI [10] | TGI [11] | TGI [12] | TGI [13] | TGI [14] | TGI [15] | TGI [16] | TGI [17] | TGI [18] | TGI [19] | TGI [20]
1 | NC(=O)OCC(COc1ccc(Cl)cc1)OC(=O)c1ccccc1Cl (stereo not given) | 79.9 µM | 25.7 µM | > 100 µM | 44.8 µM | > 100 µM | 47.4 µM | 36.6 µM | 30.7 µM | 62.2 µM | 51.5 µM | 31.9 µM | 32.7 µM | 30.9 µM | 27.9 µM | 79.1 µM | 95.1 µM | – | – | – | –
2 | CN(C(=O)C12C3C4C1C1C2C3C41I)C(C)(C)C (stereo not given) | > 100 µM | – | > 100 µM | > 100 µM | > 100 µM | > 43 µM | > 100 µM | > 100 µM | > 100 µM | > 100 µM | > 100 µM | > 100 µM | > 100 µM | > 100 µM | > 100 µM | > 100 µM | – | – | – | –
3 | CCCCCCn1c(SCC)c2ccccc2c1-c1nc(F)nc(F)n1 | > 100 µM | > 100 µM | – | > 100 µM | > 100 µM | > 100 µM | > 100 µM | > 100 µM | > 100 µM | > 100 µM | > 100 µM | > 100 µM | > 100 µM | > 100 µM | > 100 µM | > 100 µM | – | – | – | –
4 | COC(=O)N1C[C@@]2(C=CC3(CC2)OCCO3)c2ccccc21 | > 100 µM | – | > 100 µM | > 100 µM | > 100 µM | > 100 µM | > 100 µM | > 100 µM | > 100 µM | > 100 µM | – | > 100 µM | > 100 µM | > 100 µM | – | > 100 µM | > 100 µM | 95.6 µM | > 100 µM | –
5 | NCC1(N2CCOCC2)C2CCCC21CO (stereo not given) | – | > 100 µM | – | > 100 µM | > 100 µM | > 100 µM | > 100 µM | > 100 µM | > 100 µM | > 100 µM | > 100 µM | > 100 µM | > 100 µM | – | > 100 µM | > 100 µM | – | – | – | –
6 | CC1=C(C(=O)Nc2cccc3c2C(=O)NC3=O)CC(C(=O)Nc2cccc3c2C(=O)NC3=O)=C(C)N1 | > 100 µM | > 100 µM | > 100 µM | > 100 µM | > 100 µM | > 100 µM | > 100 µM | > 100 µM | > 100 µM | > 100 µM | > 100 µM | > 100 µM | > 100 µM | > 100 µM | > 100 µM | > 100 µM | > 100 µM | – | > 100 µM | > 100 µM
7 | NCCCNCCCNCCCN | > 100 µM | > 100 µM | > 100 µM | > 100 µM | > 100 µM | – | > 100 µM | > 100 µM | > 100 µM | > 100 µM | > 100 µM | > 100 µM | – | > 100 µM | 8.96 µM | > 100 µM | > 100 µM | > 100 µM | > 100 µM | –
8 | CC(=O)/C(=C\c1ccco1)C(=O)Nc1ccccc1 | > 100 µM | > 100 µM | – | > 100 µM | > 100 µM | > 100 µM | > 100 µM | > 100 µM | > 100 µM | > 100 µM | > 100 µM | – | > 100 µM | > 100 µM | > 100 µM | > 100 µM | – | – | – | –
